From ChEMBL document CHEMBL1201862, “PubChem BioAssay data set” (2004)
Activity calls are given as the source filed them. Cut-off read from the data, not from the text of the source, for most assays here: actives have a measured EC50 and inactives only a lower limit.

What was measured:
CHO = CHO cell viability loss, potency – luminescence, cytotoxicity control for TLR9-MyD88 binding inhibitor project, dose response (AID 588339); type: functional, cell-based, hamster; details: Cricetulus griseus;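 note: CHO cells stably coexpressing TLR9 and MyD88 fusions from primary screen; compound exposure lasted 48 hours before viability readout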
[1] = loss of viability in HepG2 cells – cell-based, CellTiter-Glo, cherry-picked, cytotoxicity control for Shn3 inhibitor project, dose response (AID 624134); type: functional
[2] = reduction of Shn3 3'UTR-driven luciferase in osteoblasts – cell-based, Clone20 osteoblasts, firefly luciferase, cherry-picked, dose response (AID 624132); type: functional;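 note: firefly luciferase luminescence from reporter carrying the Shn3 3'UTR in osteoblasts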
Beta Lactamase = Beta Lactamase (Pseudomonas aeruginosa, UniProt Q932Y6); experiment: BLA reporter interference, concentration series – BLA reporter cells, FRET fluorescence, artefact control for TLR9-MyD88 binding inhibitor project, dose response (AID 588341); type: cell-based;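 note: cell based assay in CHO-K1 cells stably expressing beta-lactamase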
BJ [3] = experiment: cells; type: functional, cell-based; details: Homo sapiens
[4] = luciferase reporter signal suppression in cells – H4 neuroglioma cells, luminescence, dose response (AID 1990); type: functional, cell-based
BJ [5] = experiment: BJ-TERT fibroblast viability loss – cell-based, RAS-independent, luminescence, dose response (AID 1933); type: functional; details: Homo sapiens
[6] = alpha-synuclein stem-loop luciferase translation blockers – H4 neuroglioma cells, luminescence, confirmation (AID 1988); type: functional, cell-based
BJ [7] = experiment: BJ-TERT-LT-ST fibroblast viability loss – cell-based, RAS-independent, luminescence, dose response (AID 1935); type: functional; details: Homo sapiens;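 note: BJ fibroblasts immortalized with TERT plus LT and ST oncogenes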
BJ [8] = experiment: growth inhibition of engineered Ras-driven BJ cells – cell-based, alamar blue fluorescence, cherrypicked samples, dose response (AID 2631); type: functional; details: Homo sapiens;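 note: confirmatory dose-response assay in RAS-dependent BJ fibroblasts engineered with TERT, LT and ST, with cytotoxicity read by fluorescence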
[9] = DRD fibroblast viability loss – cell-based, non-viral oncogenic, luminescence, dose response (AID 1934); type: functional; details: Homo sapiens
[10] = Luminescence Cell-Based Dose Response HTS to Identify Inhibitors of 5'UTR Stem-Loop Driven Prion Protein mRNA Translation in H4 Neuroglioblastoma Cells. [Related pubchem assays: 1827 (Project Summary), 1813 (Primary HTS)]; type: functional
[11] = molecular target: T1, Heat shock factor protein 1 (Mus musculus, UniProt P38532); experiment: enhancement of HSF1-driven luciferase signal – cell-based, NIH3T3, luminescence, dose retest, confirmation (AID 435004); type: functional;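 note: stress induced by proteasome inhibitor MG132 added 30 min after compound; luciferase reporter driven by HSF1 response element in NIH3T3 cells; actives raise luminescence as potentiators of the MG132 stress response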
T1 sequence (P38532 whole entry): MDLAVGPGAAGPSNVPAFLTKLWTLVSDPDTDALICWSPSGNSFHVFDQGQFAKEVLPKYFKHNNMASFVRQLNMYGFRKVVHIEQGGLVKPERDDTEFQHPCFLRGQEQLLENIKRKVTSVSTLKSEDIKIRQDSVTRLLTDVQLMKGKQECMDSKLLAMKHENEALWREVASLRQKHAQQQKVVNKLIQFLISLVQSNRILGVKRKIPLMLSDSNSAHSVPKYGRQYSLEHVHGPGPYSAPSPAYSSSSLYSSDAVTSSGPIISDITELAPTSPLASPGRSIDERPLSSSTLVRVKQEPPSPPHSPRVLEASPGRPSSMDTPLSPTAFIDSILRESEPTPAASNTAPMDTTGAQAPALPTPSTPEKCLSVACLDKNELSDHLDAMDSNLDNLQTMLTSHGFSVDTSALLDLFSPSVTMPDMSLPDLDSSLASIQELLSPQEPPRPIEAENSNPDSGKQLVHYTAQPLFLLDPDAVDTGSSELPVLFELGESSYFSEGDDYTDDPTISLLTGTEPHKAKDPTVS

[12] = molecular target: Protein disulfide-isomerase (Homo sapiens, UniProt P07237); experiment: inhibition of PDI-driven insulin aggregation – biochemical, turbidity, absorbance, cherry-picked samples, dose response (AID 602350); type: functional
[13] = molecular target: T2, Corticotropin-releasing factor receptor 2/Corticotropin-releasing factor-binding protein (Homo sapiens, UniProt P24387+Q13324); experiment: activators of CRF receptor 2 with binding protein – uHTS hits, confirmation (AID 602473); type: functional; details: read-out: EC50_Mean
T2 sequence (Q13324 whole entry): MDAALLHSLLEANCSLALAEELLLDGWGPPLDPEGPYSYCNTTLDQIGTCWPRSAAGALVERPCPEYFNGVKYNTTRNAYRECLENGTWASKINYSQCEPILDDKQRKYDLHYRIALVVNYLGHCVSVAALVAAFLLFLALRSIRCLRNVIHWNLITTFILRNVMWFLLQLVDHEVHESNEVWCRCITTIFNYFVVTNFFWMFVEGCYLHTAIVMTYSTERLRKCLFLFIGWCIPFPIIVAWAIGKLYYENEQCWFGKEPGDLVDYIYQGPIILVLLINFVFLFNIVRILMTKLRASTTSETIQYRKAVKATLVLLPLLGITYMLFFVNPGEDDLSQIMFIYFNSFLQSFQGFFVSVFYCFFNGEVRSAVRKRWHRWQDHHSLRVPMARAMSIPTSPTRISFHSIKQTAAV
T2 sequence (P24387 whole entry): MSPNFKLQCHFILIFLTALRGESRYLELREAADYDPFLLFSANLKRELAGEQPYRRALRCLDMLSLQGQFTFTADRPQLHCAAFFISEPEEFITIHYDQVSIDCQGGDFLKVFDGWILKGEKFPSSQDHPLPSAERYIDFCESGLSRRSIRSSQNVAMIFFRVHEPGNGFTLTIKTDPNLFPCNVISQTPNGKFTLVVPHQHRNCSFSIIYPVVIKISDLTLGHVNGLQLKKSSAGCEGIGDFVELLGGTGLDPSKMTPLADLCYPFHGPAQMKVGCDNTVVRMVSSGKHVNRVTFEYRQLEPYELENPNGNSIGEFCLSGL

cells [14] = type: functional, cell-based
[15] = non-specific 3'UTR reporter inhibition in Clone20-Shn3RL – cell-based, Renilla luciferase, cherry-picked, counter-screen for Shn3 inhibitor project, dose response (AID 624133); type: functional
cells [16] = type: functional, cell-based; remark: listed apart in the source
Trypsin = Trypsin (Sus scrofa, UniProt P00761); experiment: trypsin protease activity blockade – biochemical, quenched peptide fluorescence, cherry-pick, selectivity assay for Rce1 protease inhibitor project, dose response (AID 488789)
CAAX prenyl protease 2 [17] = molecular target: T3, CAAX prenyl protease 2 (Saccharomyces cerevisiae S288c, UniProt Q03530); type: biochemical
T3 sequence (Q03530 whole entry): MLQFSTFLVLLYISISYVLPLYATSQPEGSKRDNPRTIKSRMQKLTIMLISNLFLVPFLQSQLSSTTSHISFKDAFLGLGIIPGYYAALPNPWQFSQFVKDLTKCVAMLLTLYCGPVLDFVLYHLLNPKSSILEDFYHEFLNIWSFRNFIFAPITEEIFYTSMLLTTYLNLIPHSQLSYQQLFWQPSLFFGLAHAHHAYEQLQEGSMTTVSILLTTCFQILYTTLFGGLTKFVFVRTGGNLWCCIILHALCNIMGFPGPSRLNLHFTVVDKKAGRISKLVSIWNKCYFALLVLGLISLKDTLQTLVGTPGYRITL

[18] = molecular target: T4, Replicative DNA helicase DnaB (Mycobacterium tuberculosis, UniProt P9WMR3); experiment: DnaB intein splicing inhibitors, dose response, biochemical, cell-free fluorescence (AID 449749); type: functional
T4 sequence (P9WMR3 whole entry): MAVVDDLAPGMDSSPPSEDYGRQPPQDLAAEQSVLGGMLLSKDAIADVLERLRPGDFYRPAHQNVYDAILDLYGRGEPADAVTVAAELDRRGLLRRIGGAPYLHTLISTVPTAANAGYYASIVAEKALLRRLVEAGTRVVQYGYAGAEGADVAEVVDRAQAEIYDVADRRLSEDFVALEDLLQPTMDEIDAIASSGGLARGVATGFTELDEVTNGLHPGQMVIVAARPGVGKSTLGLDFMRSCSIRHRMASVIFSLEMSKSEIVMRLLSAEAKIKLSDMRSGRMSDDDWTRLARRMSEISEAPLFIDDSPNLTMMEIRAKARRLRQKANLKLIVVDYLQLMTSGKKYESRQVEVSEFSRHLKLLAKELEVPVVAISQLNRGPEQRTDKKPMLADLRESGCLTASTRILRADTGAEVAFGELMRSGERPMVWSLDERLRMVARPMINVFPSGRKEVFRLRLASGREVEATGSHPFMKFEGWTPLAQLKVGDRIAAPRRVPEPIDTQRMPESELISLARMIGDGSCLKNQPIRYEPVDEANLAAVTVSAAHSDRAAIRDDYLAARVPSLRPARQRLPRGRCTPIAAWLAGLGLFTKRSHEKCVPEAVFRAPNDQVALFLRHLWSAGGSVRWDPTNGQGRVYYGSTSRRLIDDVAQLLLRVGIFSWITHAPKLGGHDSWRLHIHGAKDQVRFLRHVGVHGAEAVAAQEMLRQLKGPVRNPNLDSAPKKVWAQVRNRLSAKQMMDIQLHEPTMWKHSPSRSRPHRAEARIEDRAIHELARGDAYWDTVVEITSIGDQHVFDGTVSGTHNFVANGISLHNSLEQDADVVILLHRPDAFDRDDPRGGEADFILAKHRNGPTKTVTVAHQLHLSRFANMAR

Protein RecA = molecular target: T5, Protein RecA (Mycobacterium tuberculosis, UniProt P9WHJ3); experiment: Fluorescence Cell-Free Homogeneous Dose Retest to Identify Inhibitors of RecA-Intein Splicing Activity. [Related pubchem assays (depositor defined):AID2097, AID2223, AID489010, AID492950]; type: functional
T5 sequence (P9WHJ3 whole entry): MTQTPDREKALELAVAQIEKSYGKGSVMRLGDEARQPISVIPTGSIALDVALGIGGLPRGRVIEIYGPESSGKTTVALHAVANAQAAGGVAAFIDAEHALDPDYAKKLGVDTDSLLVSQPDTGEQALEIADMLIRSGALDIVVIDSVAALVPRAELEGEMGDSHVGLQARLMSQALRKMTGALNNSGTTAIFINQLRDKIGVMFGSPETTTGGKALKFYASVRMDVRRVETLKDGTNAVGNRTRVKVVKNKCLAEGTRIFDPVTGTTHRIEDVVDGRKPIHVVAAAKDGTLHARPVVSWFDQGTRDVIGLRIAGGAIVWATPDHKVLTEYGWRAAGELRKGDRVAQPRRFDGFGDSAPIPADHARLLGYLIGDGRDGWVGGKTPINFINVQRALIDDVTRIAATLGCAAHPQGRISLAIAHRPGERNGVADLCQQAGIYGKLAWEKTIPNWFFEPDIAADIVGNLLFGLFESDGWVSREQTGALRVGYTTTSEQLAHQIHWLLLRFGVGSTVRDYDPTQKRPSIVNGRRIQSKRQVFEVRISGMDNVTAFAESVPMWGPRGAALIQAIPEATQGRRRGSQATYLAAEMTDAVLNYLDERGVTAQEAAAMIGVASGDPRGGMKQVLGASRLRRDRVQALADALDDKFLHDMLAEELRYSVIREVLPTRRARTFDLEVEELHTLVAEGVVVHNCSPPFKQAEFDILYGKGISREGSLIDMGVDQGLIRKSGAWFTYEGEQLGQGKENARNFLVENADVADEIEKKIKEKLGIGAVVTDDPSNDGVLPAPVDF

CAAX prenyl protease 2 [19] = molecular target: T6, CAAX prenyl protease 2 (Homo sapiens, UniProt Q9Y256); experiment: inhibition of Ras-converting CAAX protease Rce1 – biochemical, yeast membranes, quenched-peptide fluorescence, cherry-pick, dose response (AID 588849)
T6 sequence (Q9Y256 whole entry): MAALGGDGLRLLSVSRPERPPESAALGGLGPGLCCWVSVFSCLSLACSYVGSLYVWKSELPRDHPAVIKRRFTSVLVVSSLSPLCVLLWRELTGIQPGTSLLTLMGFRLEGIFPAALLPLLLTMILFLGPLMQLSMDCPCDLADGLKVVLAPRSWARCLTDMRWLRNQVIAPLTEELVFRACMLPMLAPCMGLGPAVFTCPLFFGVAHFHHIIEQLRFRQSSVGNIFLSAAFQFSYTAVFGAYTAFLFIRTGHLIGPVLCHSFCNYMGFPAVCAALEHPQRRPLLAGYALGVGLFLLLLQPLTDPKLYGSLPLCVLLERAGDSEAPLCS

[20] = molecular target: Beta-2 adrenergic receptor (Homo sapiens, UniProt P07550); experiment: ADRB2 activation measured by internalization – cell-based, FAP fluorogen, flow cytometry, cherry pick 1, dose response (AID 588763); type: functional
[21] = NIH3T3 cell viability loss – ATP luminescence, mouse fibroblasts, counter-screen, dose response (AID 2010); type: functional, cell-based;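 note: cells exposed to compound for about 90 hours before reading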
[22] = Trypanosoma cruzi growth suppression in host cells – NIH3T3 host cells, beta-gal luminescence, confirmation (AID 2044); type: functional, cell-based;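 note: intracellular parasites grown in NIH/3T3 mouse fibroblasts as host cells; luminescent beta-galactosidase reporter signal from transgenic T. cruzi replicating inside host cells; inhibitors lower the luminescence signal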

Beta Lactamase, sequence (Q932Y6 whole entry): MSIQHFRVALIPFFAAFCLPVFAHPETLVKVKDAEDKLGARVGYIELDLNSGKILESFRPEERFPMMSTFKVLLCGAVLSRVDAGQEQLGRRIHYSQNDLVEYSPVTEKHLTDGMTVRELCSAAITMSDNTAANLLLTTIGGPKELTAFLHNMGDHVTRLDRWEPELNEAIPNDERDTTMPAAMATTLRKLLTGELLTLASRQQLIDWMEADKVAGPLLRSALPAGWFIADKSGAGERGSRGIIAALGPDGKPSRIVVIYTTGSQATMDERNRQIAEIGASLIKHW
Trypsin, sequence (P00761 whole entry): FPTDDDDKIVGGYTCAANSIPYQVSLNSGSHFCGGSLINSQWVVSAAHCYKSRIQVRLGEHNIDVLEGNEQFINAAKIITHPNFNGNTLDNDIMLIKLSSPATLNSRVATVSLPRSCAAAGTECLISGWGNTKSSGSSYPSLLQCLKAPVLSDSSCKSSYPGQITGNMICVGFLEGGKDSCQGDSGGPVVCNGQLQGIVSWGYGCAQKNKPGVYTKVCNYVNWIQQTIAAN
Beta-2 adrenergic receptor, sequence (P07550 whole entry): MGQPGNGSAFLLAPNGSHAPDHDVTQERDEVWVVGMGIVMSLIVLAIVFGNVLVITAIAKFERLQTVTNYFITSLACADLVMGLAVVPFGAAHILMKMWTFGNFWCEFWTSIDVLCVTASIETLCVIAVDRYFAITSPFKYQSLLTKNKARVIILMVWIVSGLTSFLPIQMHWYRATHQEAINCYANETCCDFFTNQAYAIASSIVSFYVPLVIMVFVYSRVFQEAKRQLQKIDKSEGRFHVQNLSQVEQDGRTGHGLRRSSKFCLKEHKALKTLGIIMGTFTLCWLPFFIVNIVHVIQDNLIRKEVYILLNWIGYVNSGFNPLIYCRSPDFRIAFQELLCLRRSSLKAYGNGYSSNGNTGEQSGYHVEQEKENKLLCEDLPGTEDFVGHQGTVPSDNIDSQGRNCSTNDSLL
Protein disulfide-isomerase, sequence (P07237 whole entry): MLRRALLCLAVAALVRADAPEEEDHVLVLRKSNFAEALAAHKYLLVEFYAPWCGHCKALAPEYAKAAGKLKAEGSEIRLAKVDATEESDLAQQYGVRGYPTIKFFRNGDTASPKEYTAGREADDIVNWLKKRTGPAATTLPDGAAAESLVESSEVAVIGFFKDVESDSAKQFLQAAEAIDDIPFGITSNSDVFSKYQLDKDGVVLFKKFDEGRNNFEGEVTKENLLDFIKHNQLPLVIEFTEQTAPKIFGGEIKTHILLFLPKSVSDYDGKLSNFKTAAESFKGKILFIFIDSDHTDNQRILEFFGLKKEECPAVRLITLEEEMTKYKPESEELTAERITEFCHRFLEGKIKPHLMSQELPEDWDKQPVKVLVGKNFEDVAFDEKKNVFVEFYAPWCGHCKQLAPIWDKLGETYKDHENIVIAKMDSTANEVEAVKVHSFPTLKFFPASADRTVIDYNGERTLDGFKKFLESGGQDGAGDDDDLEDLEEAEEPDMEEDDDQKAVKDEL

Compound: O=C(NCc1ccccc1C(F)(F)F)c1cccc2c1C(=O)c1ccc(N3CCC(N4CCCCC4)CC3)cc1S2(=O)=O
- IC50 (CHO): 8.71 µM (active)
- AC50 [1]: 9.77 µM (active)
- AC50 [2]: 21.2 µM (active)
- IC50 (Beta Lactamase): 5.89 µM (active)

Compound: COc1cccc(CSc2nc3ccccc3cc2C=O)c1
- EC50 (BJ [3]): 21.6 µM (active)
- EC50 [4]: 16.6 µM (active)
- EC50 (BJ [5]): 0.944 µM (inconclusive)
- EC50 [6]: 13.7 µM (active)
- EC50 (BJ [7]): 1.17 µM (active)
- EC50 (BJ [8]): 0.301 µM (active)
- EC50 [9]: 1.27 µM (active)
- EC50 [10]: 17.7 µM (active)

Compound: Cc1c(-n2cc(C(=O)c3ccccc3O)cc(C#N)c2=O)c(=O)n(-c2ccccc2)n1C
- EC50 [11]: > 260 µM (inactive)
- AC50 [12]: 5.89 µM (active)
- EC50 [13]: 8.01 µM (active)

Compound: COc1ccccc1-c1cc(C(F)(F)F)nc(S(=O)(=O)CCCC(=O)NCc2ccc(F)cc2)n1
- EC50 (cells [14]): > 350 µM (not active)
- AC50 [15]: 23.6 µM (active)
- EC50 (cells [16]): > 350 µM (not active)
- AC50 (Trypsin): 2.3 µM (active)
- AC50 (CAAX prenyl protease 2 [17]): 7.9 µM (active)
- AC50 [1]: > 70 µM (inactive)
- AC50 [18]: 5.72 µM (active)
- AC50 [2]: 4.43 µM (active)
- EC50 (Protein RecA): 3.61 µM (active)
- AC50 (CAAX prenyl protease 2 [19]): 10.8 µM (active)

Compound: CCN(c1ccc2c(c1)OCO2)S(=O)(=O)c1cc(Br)cc2c1N(C(C)=O)CC2
- EC50 [20]: 10.5 µM (inactive)
- EC50 [21]: > 60 µM (not active)
- EC50 [22]: 0.891 µM (active)
